Test results from US20220259164A1, “USE OF AMINOTHIOL COMPOUNDS AS CEREBRAL NERVE OR HEART PROTECTIVE AGENT” (SHANGHAI KECHOW PHARMA, INC., priority 2019, published 2022).
Values joined by “and” are separate entries in the source; they are usually repeats but may differ in a detail not shown here. Identical values can stand only once.

Key:
[1] = test system: cisplatin-induced nephrotoxicity in SD rats; test: Cisplatin-induced nephrotoxicity in SD rats: blood creatinine and urea nitrogen; assay type: in vivo, rat; conditions: for Creatinine / Urea nitrogen: whole blood day 5, individual rats
Procedure: Healthy male SPF grade SD rats (body weight 250-300 g) were selected. Control group: PBS […] Cisplatin+compound B group: 5 mg/kg i.p.+compound B at 200 mg/kg i.p., with compound B being administered 30 min prior to cisplatin administration Cisplatin+amifostine group: 5 mg/kg i.p.+AMI at 200 mg/kg i.p., with AMI being administered 30 min prior to cisplatin administration Cisplatin+compound A group: 5 mg/kg i.p.+compound A at 800 mg/kg p.o., with compound A being administered 30 min prior to cisplatin administration (1) The SD rats used in the experiment were weighed, labeled, and evenly divided into 5 groups, with 3 SD rats in each group. (2) The compound B, compound A, and AMI groups were respectively administered at the planned concentrations. […] (3) The rats were weighed and recorded daily, and on day 5, blood was taken from the intraocular canthus of the SD rats and placed in an anticoagulant tube.

[2] = Body weight of cisplatin-induced SD rats; assay type: in vivo, rat
Procedure: Healthy male SPF grade SD rats (body weight 250-300 g) were selected. Cisplatin+compound B group: 5 mg/kg i.p.+compound B at 200 mg/kg i.p., with compound B being administered 30 min prior to cisplatin administration Cisplatin+amifostine group: 5 mg/kg i.p.+AMI at 200 mg/kg i.p., with AMI being administered 30 min prior to cisplatin administration Cisplatin+compound A group: 5 mg/kg i.p.+compound A at 800 mg/kg p.o., with compound A being administered 30 min prior to cisplatin administration (1) The SD rats used in the experiment were weighed, labeled, and evenly divided into 5 groups, with 3 SD rats in each group. (2) The compound B, compound A, and AMI groups were respectively administered at the planned concentrations. […] (3) The rats were weighed and recorded daily, and on day 5, blood was taken from the intraocular canthus of the SD rats and placed in an anticoagulant tube.

[3] = test system: rat myocardial infarction model (coronary ligation 30 min, reperfusion); test: Myocardial infarction model: myocardial enzyme LDH in serum; assay type: in vivo; conditions: isosorbide mononitrate injection i.v. 1 mg/kg
Procedure: 1. The rats were grouped and administered according to the following methods (2) Compound B (i.v.) at 100 mg/kg (3) Compound A (i.v.) at 100 mg/kg (4) Compound A (oral) at 500 mg/kg (5) Isosorbide mononitrate injection (i.v.) at 1 mg/kg (equivalent to clinical equivalent dose). There were 10 rats in each group, and the rats were administered intravenously immediately after 30 min of ischemia and reperfusion, i.v. 10% 1 min+i.v. drip 90% 30 min. The administration volume was 2 ml/rat. Compound A (oral) at 500 mg/kg was administered intragastrically 2 h after reperfusion when the animal was awake, and the administration volume was 10 ml/kg. Note: Compounds A and B used in this example were in the form of hydrochloride salts thereof. Given intraperitoneal injection of 3% sodium pentobarbital at 60 mg/kg for general anesthesia, the rats were fixed on an operating table in the supine position. The surgical field of the anterolateral chest was depilated and routinely disinfected. The skin and muscular layer were cut open, purse-string suture was performed on the muscular layer, the chest was opened on the left at the fourth intercostal space, and the heart was pulled out with a ring-shaped retractor. At the position of the anterior descending coronary artery 3-4 mm below the left atrial appendage, a 6/0 damage-free silk thread was threaded, and a nylon thread with a diameter of 1.6 mm was juxtaposed and ligated together with the anterior descending coronary artery, while the other end was left outside the body for later use. The heart was placed back into the chest cavity, the air in the chest cavity was emptied, and the chest cavity was closed. 30 min after ligation, the nylon thread was carefully removed for reperfusion. Compared with the normal lead II electrocardiogram (ECG-II), ST segment elevation in ECG-II by 0.1 mV or more 30 min after coronary artery ligation was regarded as successful ischemia. […] Blood was collected from the rats through the abdominal aorta and centrifuged at 3000 rpm×10 min at 4° C., and the upper serum was taken to determine LDH by enzyme-linked immunosorbent assay.

[4] = test system: rat myocardial infarction model (coronary ligation 30 min, reperfusion); test: Myocardial infarction model: myocardial infarction range (TTC staining); assay type: in vivo; conditions: isosorbide mononitrate injection i.v. 1 mg/kg
Procedure: 1. The rats were grouped and administered according to the following methods (2) Compound B (i.v.) at 100 mg/kg (3) Compound A (i.v.) at 100 mg/kg (4) Compound A (oral) at 500 mg/kg (5) Isosorbide mononitrate injection (i.v.) at 1 mg/kg (equivalent to clinical equivalent dose). There were 10 rats in each group, and the rats were administered intravenously immediately after 30 min of ischemia and reperfusion, i.v. 10% 1 min+i.v. drip 90% 30 min. The administration volume was 2 ml/rat. Compound A (oral) at 500 mg/kg was administered intragastrically 2 h after reperfusion when the animal was awake, and the administration volume was 10 ml/kg. Note: Compounds A and B used in this example were in the form of hydrochloride salts thereof. Given intraperitoneal injection of 3% sodium pentobarbital at 60 mg/kg for general anesthesia, the rats were fixed on an operating table in the supine position. The surgical field of the anterolateral chest was depilated and routinely disinfected. The skin and muscular layer were cut open, purse-string suture was performed on the muscular layer, the chest was opened on the left at the fourth intercostal space, and the heart was pulled out with a ring-shaped retractor. At the position of the anterior descending coronary artery 3-4 mm below the left atrial appendage, a 6/0 damage-free silk thread was threaded, and a nylon thread with a diameter of 1.6 mm was juxtaposed and ligated together with the anterior descending coronary artery, while the other end was left outside the body for later use. The heart was placed back into the chest cavity, the air in the chest cavity was emptied, and the chest cavity was closed. 30 min after ligation, the nylon thread was carefully removed for reperfusion. Compared with the normal lead II electrocardiogram (ECG-II), ST segment elevation in ECG-II by 0.1 mV or more 30 min after coronary artery ligation was regarded as successful ischemia.

[5] = test system: SD rat cerebral ischemia reperfusion injury model (MCAO); test: Neurobehavioral evaluation (5-point Longa/Bederson score) in rat ischemic stroke model (MCAO); assay type: in vivo; parameters: key to Neurological function score After modeling: Longa/Bederson 5-point scale (0-4); higher = more severe deficit; conditions: for Neurological function score After modeling: individual rats
Text: Healthy male SPF grade SD rats (body weight 250-300 g) were selected. […] (2) A midline neck incision was made to expose the right common carotid artery, internal carotid artery and external carotid artery. A 6-0 silk thread was used to ligate the distal end of the external carotid artery at 4 mm from the bifurcation of the common carotid artery, another 6-0 silk thread was inserted at the external carotid artery, and a slipknot was tied near the bifurcation of the common carotid artery. (3) An arterial clamp was used to clamp the common carotid artery. […] (4) The thread embolism was removed 90 min after ischemia, the proximal end of the external artery was ligated with a 6-0 silk thread, the neck wound was sutured with a 3-0 silk thread, the wound was disinfected with povidone iodine, the rats were placed on a heating pad, and after being awake, they were placed in a constant temperature rearing box for rearing. […] The experimental animals were scored for signs of neurological function deficit before and after modeling. The scoring standard was given by reference to the 5-point system of Longa and Bederson. The scoring was performed 24 h after the animals were awake from anesthesia. The higher the score, the more severe the behavioral disorder of the animals. 0 point: No nerve damage symptoms […] Inability to fully extend the contralateral front paw […] Turning in a circle to the opposite side […] Falling over to the opposite side 4 points: Inability to walk spontaneously, and loss of consciousness In a manner same as in Example 1, experimental animals were selected, except that the experiment was divided into seven groups (i.e., groups […], and G, among which groups C, D, and E were given different dosages of administration from Example 1, group F was given edaravone, and group G was given amifostine).

[6] = test system: radiation intestinal injury in C57 male mice; test: Protective effect on radiation intestinal injury (HE staining of small intestine); assay type: in vivo; conditions: 517 mpk i.p. 30 min before 16 Gy abdominal irradiation; fifth day
Procedure: C57 male mice were randomly divided into 4 groups, namely a blank control group, an irradiation group, a compound B (TFA) irradiation group, and an AMI irradiation group, respectively. The mode of administration for each group was an intraperitoneal injection, 30 min before irradiation. The dosage of administration was 517 mpk, and the abdominal irradiation dose was 16 Gy. On the fifth day, the small intestine tissue was taken for HE staining.

[7] = test system: SD rat cerebral ischemia reperfusion injury model (MCAO); test: TTC staining and cerebral infarction area in rat ischemic stroke model (MCAO); assay type: in vivo; conditions: for Cerebral infarction area: individual rats
Procedure: Healthy male SPF grade SD rats (body weight 250-300 g) were selected. (1) The rats were anesthetized, the skin on the neck was prepared, and the body temperature was maintained at 37±0.5° C. (2) A midline neck incision was made to expose the right common carotid artery, internal carotid artery and external carotid artery. A 6-0 silk thread was used to ligate the distal end of the external carotid artery at 4 mm from the bifurcation of the common carotid artery, another 6-0 silk thread was inserted at the external carotid artery, and a slipknot was tied near the bifurcation of the common carotid artery. (3) An arterial clamp was used to clamp the common carotid artery. A small opening was cut on the external carotid artery at 3 mm from the bifurcation of the common carotid artery, and a 0.33 mm diameter nylon thread with a treated head end was inserted through the small opening, entered the internal carotid artery, and was inserted inward to the middle cerebral artery, wherein the insertion depth of the nylon thread was about 16±1 mm from the bifurcation of the common carotid artery. (4) The thread embolism was removed 90 min after ischemia, the proximal end of the external artery was ligated with a 6-0 silk thread, the neck wound was sutured with a 3-0 silk thread, the wound was disinfected with povidone iodine, the rats were placed on a heating pad, and after being awake, they were placed in a constant temperature rearing box for rearing. […] After the rats were anesthetized, the brain tissues were taken from the rats, placed in a refrigerator and frozen at -20° C. for 30 min. 1% TTC (W/V) was prepared with PBS and placed in a water bath at 37° C. until the TTC was dissolved, and the frozen brain tissue was sliced, placed in 10 ml of the TTC solution and incubated at 37° C. for 10 min. The brain slices were turned from time to time to make the tissue evenly stained. Normal brain tissue was bright red after staining, whereas the infarction region was pale white in color or light white in a black and white image. In addition, a software was used to measure and statistically analyze the infarction area. In a manner same as in Example 1, experimental animals were selected, except that the experiment was divided into seven groups (i.e., groups […], and G, among which groups C, D, and E were given different dosages of administration from Example 1, group F was given edaravone, and group G was given amifostine).

[8] = test system: radiation lung injury in C57 male mice; test: Protective effect on radiation lung injury (HE staining of lung); assay type: in vivo; conditions: 517 mpk i.p. 30 min before 17 Gy right lung irradiation; months 2, 4, 6
Procedure: C57 male mice were randomly divided into 4 groups, namely a blank control group, an irradiation group, a compound B (TFA) irradiation group, and an AMI irradiation group, respectively. The mode of administration for each group was an intraperitoneal injection, 30 min before irradiation. The dosage of administration was 517 mpk, and the irradiation dose to the right lung was 17 Gy. […] Lung tissues were taken at months 2, 4, and 6 for HE staining

[9] = amifostine 200 mg/kg i.p. 30 min prior to cisplatin 5 mg/kg i.p.
[10] = Example 2 group G: amifostine 100 mg/kg i.p. 5 min before reperfusion
[11] = Example 2 group F: edaravone 3 mg/kg i.v. before reperfusion

Question: For `[NH2][Pt]([NH2])([Cl])[Cl]` [CDDP, cisplatin, reference compound], which Creatinine ([1]; cisplatin alone 5 mg/kg i.p.) is on record?
Answer: 58.6 µmol/L and 54.1 µmol/L and 78 µmol/L

Question: And the Urea nitrogen ([1]; cisplatin alone 5 mg/kg i.p.)?
Answer: 18.70 mmol/L and 7.81 mmol/L and 12.9 mmol/L

Question: And the “Change in body weight” value ([2]; cisplatin alone 5 mg/kg i.p.)?
Answer: the body weight dropped significantly

Question: Which results are given for `O=[N+]([O-])O[C@@H]1CO[C@H]2[C@@H]1OC[C@@H]2O` [Isosorbide mononitrate injection, Isosorbide mononitrate, reference compound]?
Answer: Improvement rate (%) of LDH ([3]; compared with model group): 22.4%; LDH ([3]; serum, x ± s, n = 10): 1472.7 ± 454.5 U/L; Improvement rate (%) of myocardial infarction range ([4]; compared with model group): 25.5%; Infarction range (%) ([4]; x ± s, n = 10): 30.1 ± 6.7 %

Question: Which results are given for `NCCCNCCSP(=O)(O)O` [amifostine, reference compound]?
Answer: Effect on cisplatin-induced increase of blood creatinine and urea nitrogen (in words) ([1]; 30 min prior to cisplatin 5 mg/kg i.p.: compound B 200 mg/kg i.p., compound A 800 mg/kg p.o., amifostine 200 mg/kg i.p., day 5): significantly reduce the increased blood creatinine and urea nitrogen levels; Creatinine [1, 9]: 19.8 µmol/L and 38.9 µmol/L and 21.9 µmol/L; Urea nitrogen [1, 9]: 5.51 mmol/L and 5.34 mmol/L and 5.49 mmol/L; % Behavioral improvement [5, 10]: 29.32%; Neurological function score After modeling [5, 10]: 2 (2×) and 1 (2×) and 3 (2×); Change in body weight of cisplatin-induced SD rats ([2]; 30 min prior to cisplatin 5 mg/kg i.p.: compound B 200 mg/kg i.p., compound A 800 mg/kg p.o., amifostine 200 mg/kg i.p., weighed daily): the degree of decrease was significantly better than that of the cisplatin group; Changes in the intestinal villi structure (HE staining) [6]: milder than that in the irradiation group; % Improvement of cerebral infarction area [7, 10]: 23.24%; Cerebral infarction area [7, 10]: 58.88 mm^3 and 20.71 mm^3 and 0 mm^3 and 244.96 mm^3 and 204.11 mm^3 and 20.31 mm^3; Inflammatory cell infiltration / radiation pneumonitis in lung (HE staining) [8]: could partially relieve the inflammatory cell infiltration and reduce the occurrence of radiation pneumonitis

Question: Which results are given for `CC1=NN(c2ccccc2)C(=O)C1` [edaravone, reference compound]?
Answer: % Behavioral improvement [5, 11]: 46.99%; Neurological function score After modeling [5, 11]: 1 (4×) and 2 and 3; % Improvement of cerebral infarction area [7, 11]: 58.85% and 58.95%; Cerebral infarction area [7, 11]: 0 mm^3 (2×) and 10.31 mm^3 and 45.35 mm^3 and 220.66 mm^3 and 17.11 mm^3
